Assay results reported in patent US11872210B2, “Thiol isomerases inhibitors and use thereof” (WESTERN NEW ENGLAND UNIVERSITY, priority 2017, dated 2024).

How the values were obtained:
ERp57 = biological target: T1, ERp57 (Homo sapiens, UniProt P30101); experiment: Insulin-based turbidometric assay of thiol isomerase inhibitory activity (ERp57); type: biochemical; details: insulin turbidity assay, 6 point dose curve
T1 construct: purchased AbCam (Cambridge Mass.)
T1 sequence (P30101 25-505): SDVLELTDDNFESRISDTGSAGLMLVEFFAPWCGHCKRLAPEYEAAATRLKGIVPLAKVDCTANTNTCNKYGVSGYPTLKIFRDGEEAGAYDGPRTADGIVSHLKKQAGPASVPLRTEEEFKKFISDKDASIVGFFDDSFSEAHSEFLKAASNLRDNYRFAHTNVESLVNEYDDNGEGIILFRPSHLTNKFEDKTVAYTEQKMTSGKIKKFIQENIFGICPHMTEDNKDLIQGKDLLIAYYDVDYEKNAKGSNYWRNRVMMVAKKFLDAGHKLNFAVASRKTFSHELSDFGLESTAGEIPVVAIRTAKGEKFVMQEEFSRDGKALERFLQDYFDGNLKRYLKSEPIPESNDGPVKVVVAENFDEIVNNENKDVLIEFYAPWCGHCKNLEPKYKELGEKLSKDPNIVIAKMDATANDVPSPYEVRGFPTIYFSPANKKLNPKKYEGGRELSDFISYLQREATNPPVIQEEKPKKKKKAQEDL

[1] = system: EGFR activation and downstream signaling (STAT3 phosphorylation); experiment: Western blot of EGFR signaling in HCT116 cells; type: cell-based, human; details: 24 hours
Description: HCT116 (human colon cancer) cells were incubated with drug for 24 hours and total cellular extracts prepared. Protein levels were normalized, protein loaded on SDS-polyacrylamide gels and then electrophoresed before transferring to a PVDF membrane. The membranes were probed with primary antibodies of interest, followed by secondary antibodies conjugated with horseradish peroxidase.

Tail bleeding assay = type: in vivo, C57/BL6 mice; details: infused to circulating concentration of 20 μM, 5 minutes prior to tail biopsy
Description: (§1) The effects of zafirlukast on thrombus formation in mice was determined following laser injury of cremaster muscle arterioles, and observed by intravital microscopy. Male C57/BL6 mouse platelets were labelled with DyLight 649-conjugated anti-GPIb antibody (0.2 μg/g body weight) and either vehicle or zafirlukast (ZFL) infused (at a volume required to achieve a circulating concentration of 20 μM). Following laser injury, images were recorded for 5 minutes. […] FIG. 6 illustrates the effects of ZFL on bleeding were determined by tail bleeding assay. Vehicle or ZFL (at a volume required to achieve a circulating concentration of 20 μM) were infused into the femoral veins of C57/BL6 mice, 5 minutes prior to tail biopsy. 0.5 cm of tail tip was excised and blood collected in phosphate-buffered saline (PBS), and time to cessation of bleeding was recorded. […] Graphs represent mean±SEM, n=10 per treatment, data analyzed by Student's T test, ***p<0.005.

ERp72 = biological target: T2, ERp72 (Homo sapiens, UniProt P13667); experiment: Insulin-based turbidometric assay of thiol isomerase inhibitory activity (ERp72); type: biochemical; details: insulin turbidity assay, 6 point dose curve
T2 construct: purchased AbCam (Cambridge Mass.)
T2 sequence (P13667 21-645): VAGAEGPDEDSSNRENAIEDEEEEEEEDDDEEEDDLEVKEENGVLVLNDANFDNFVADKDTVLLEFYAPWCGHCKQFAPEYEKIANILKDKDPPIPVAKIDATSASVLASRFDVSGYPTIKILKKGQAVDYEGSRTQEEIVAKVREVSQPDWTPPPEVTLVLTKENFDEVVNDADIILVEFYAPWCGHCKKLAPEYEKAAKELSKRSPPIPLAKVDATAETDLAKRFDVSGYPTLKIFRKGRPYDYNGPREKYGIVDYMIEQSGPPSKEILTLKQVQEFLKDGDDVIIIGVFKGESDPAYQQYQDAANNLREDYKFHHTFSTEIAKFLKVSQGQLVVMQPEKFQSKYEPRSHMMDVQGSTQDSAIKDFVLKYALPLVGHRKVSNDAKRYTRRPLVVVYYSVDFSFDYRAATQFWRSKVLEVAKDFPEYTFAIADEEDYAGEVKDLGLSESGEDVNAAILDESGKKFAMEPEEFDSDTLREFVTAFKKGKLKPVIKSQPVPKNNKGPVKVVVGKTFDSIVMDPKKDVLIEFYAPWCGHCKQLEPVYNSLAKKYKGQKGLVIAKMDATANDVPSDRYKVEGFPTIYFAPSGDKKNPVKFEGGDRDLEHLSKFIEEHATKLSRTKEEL
Text: (§2) Recombinant thiol isomerases were purchased from AbCam (Cambridge Mass.), recombinant insulin (bovine), bacitracin, dithiothreitol (DTT) buffers and all other chemicals were purchased from Sigma Aldrich (St. Louis, Mo.; while 384 well clear bottom plates were purchased from Corning (Corning, N.Y.).
(§3) The catalytic reduction of insulin by thiol isomerases in the presence of DTT results in aggregation of insulin chains. The turbidity of insulin aggregation can be monitored spectrophotometrically at an optical density (OD) at 650 nm. This approach has been used by multiple groups to identify thiol isomerase inhibitors in either a kinetic or endpoint fashion. A final concentration of either 10 μg/mL PDI, 30 μg/mL ERp5, 10 μg/mL ERp72 or 10 μg/mL thioredoxin, 125 μM insulin and 2 mM ethylenediaminetetraacetic acid (EDTA) in 30 μL of 100 mM potassium phosphate buffer was added to each experimental well plate, while negative control wells lacked any thiol isomerase. Lead compounds were diluted in a 6 point dose curve and the turbidity of insulin aggregation was measured kinetically each minute for 75 minutes using a Spectramax M3 plate reader (Molecular Devices, Sunnyvale, Calif.) Specificity assay utilized the insulin turbidity assay as well.

thrombus formation = experiment: Thrombus formation in mice after laser injury of cremaster muscle arterioles (intravital microscopy); type: in vivo, C57/BL6 mouse; details: infused to circulating concentration of 20 μM, 5 minutes
Description: as §1

platelets = experiment: α-granule secretion of platelets; type: cell-based, human; details: 0.1 μM-10 μM
Description: Platelet responses in the presence of zafirlukast, (0.1 μM-10 μM) were tested in a range of platelet functional assays including aggregation, granule secretion and spreading studies.
Flow Cytometry: 5 μL platelets (2×10^8 cells/mL) was added to 42 μL HEPES-buffered saline with 1 mM Ca2+. To this, 0.5 μL zafirlukast (0.6 μM-10 μM) or montelukast (0.6 μM-10 μM) or vehicle (0.1% (v/v) DMSO) was added and incubated for 5 minutes. 1 μL anti-human CD62p (1:500 dilution) and 1 μL anti-fibrinogen FITC conjugate (1:500 dilution) or 2 μL of anti-PAC-1 antibody were added to samples. Platelets were treated with 5 μL CRP-XL (1 ug/mL) or 5 μL Tyrode's for 20 minutes in the dark. Samples were then fixed with 450 μL of 0.2% (v/v) paraformaldehyde and analyzed on an accuri C6 flow cytometer (BD Biosciences, UK), with the threshold set to 20,000. Platelet populations were gated and 10,000 events recorded.

PDI = biological target: T3, PDI (Homo sapiens, UniProt P07237); experiment: Insulin-based turbidometric assay of thiol isomerase inhibitory activity (PDI); type: biochemical; details: insulin turbidity assay, 6 point dose curve
T3 construct: purchased AbCam (Cambridge Mass.)
T3 sequence (P07237 18-508): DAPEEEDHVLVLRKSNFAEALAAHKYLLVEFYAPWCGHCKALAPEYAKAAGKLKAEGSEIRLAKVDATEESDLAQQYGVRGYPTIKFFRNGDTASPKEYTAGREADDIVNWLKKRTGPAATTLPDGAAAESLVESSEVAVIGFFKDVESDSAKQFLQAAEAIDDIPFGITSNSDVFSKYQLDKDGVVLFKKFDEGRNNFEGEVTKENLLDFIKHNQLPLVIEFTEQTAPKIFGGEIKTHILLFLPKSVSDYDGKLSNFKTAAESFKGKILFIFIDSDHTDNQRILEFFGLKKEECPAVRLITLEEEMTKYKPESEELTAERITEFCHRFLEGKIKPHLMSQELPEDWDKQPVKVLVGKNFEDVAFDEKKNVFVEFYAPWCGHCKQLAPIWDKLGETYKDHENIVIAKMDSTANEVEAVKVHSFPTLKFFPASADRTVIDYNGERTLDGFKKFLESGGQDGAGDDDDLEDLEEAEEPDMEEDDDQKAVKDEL
Text: as §2, §3

- inhibitory range on ERp57 (ERp57): 30 to 300 µM
- bleeding time (time to cessation of bleeding), in words (Tail bleeding assay): no change in bleeding time
- inhibitory range on ERp72 (ERp72): 10 to 300 µM
- inhibitory range on PDI (PDI): 30 to 300 µM
SMILES: COc1cc(C(=O)NS(=O)(=O)c2ccccc2C)ccc1Cc1cn(C)c2ccc(NC(=O)OC3CCCC3)cc12 [zafirlukast, 4-(5-cyclopentyloxycarbonylamino-1-methylindol-3-ylmethyl)-3-methoxy-N-o-tolylsulfonylbenzamide]
- inhibition of EGFR activation and downstream signaling (STAT3 phosphorylation), in words [1]: almost complete inhibition
- thrombus size (maximum fluorescence intensity), in words (thrombus formation): reduction in thrombus size
- α-granule secretion (in words) (platelets): inhibit
